Data from paper PMC7555970, “Design, Synthesis and Biological Evaluation of Biphenylglyoxamide-Based Small Molecular Antimicrobial Peptide Mimics as Antibacterial Agents” (International Journal of Molecular Sciences, 2020).
In brackets after ≈: the same amount, converted by molar mass. Read-outs that look alike come from different tables or passages of the source.

Assays:
[1] = tested on: P. aeruginosa (PA01); conditions: cited from earlier work
[2] = tested on: E. coli (K12); conditions: cited from earlier work
[3] = tested on: S. aureus (SA38); conditions: cited from earlier work
[4] = tested on: Gram-negative bacteria; set-up: method as in doi:10.1002/slct.201700336, PMID 28203673; conditions: previously reported ref 43, 44; cited from earlier work
[5] = tested on: E. coli (K12); test: Minimum inhibitory concentration (MIC) assay against E. coli; type: cell-based; conditions: Escherichia coli
Description: (§1) The antimicrobial activity of the compounds was evaluated by MIC assay using the procedure described by Clinical and Laboratory Standards Institute (CLSI). A single colony of bacteria was cultured overnight in trypticase soy broth (TSB; Oxoid, Basingstoke, UK) at 37 °C with shaking. The resulting bacterial culture was collected by centrifugation and resuspended in TSB twice. The optical density (OD) of the resulting culture was adjusted to OD660 = 0.1 in TSB (which is equivalent to 10^8 colony forming unit (CFU)/mL bacteria). It was further diluted to 10^6 CFU/mL in TSB. 100 µL of the bacterial solution was then added to wells of a 96-well plate (Costar; Sigma-Aldrich, St Louis, MO, USA) containing 100 µL serially diluted peptide mimic, with final concentration ranging from 1 to 250 µM. Wells with bacteria but no compound were used as negative control while wells with only media were set as blank. The plates were then wrapped with parafilm to prevent evaporation and incubated with shaking at 120 rpm at 37 °C for 18–24 h, and the data were recorded by measuring the OD value at 660 nm using a FLUOstar Omega (BMG Labtech, Mornington, Victoria, Australia) microplate reader. […] Each experiment was performed in triplicate and was repeated in three independent experiments.

[6] = tested on: MRC-5 normal human lung fibroblasts; test: MTT toxicity assay; type: cell-based; conditions: Homo sapiens, MRC5, 72 h, 72 h drug incubation, read-out: IC50 against MRC-5 normal human lung fibroblasts
Description: The toxicity of the compounds was measured using an MTT (3-(4,5-dimethylthiazol-2-yl)-2,5-diphenyltetrazolium bromide) (Sigma Aldrich, St Louis, MO, USA) colorimetric assay against normal human lung fibroblasts MRC-5 cells. The cells were cultured in minimal essential medium (MEM; Sigma Aldrich, St Louis, MO, USA) containing 10% foetal bovine serum (FBS). The cells were maintained at 37 °C in 5% CO2 as an adherent monolayer and was passaged upon reaching confluence by standard cell culture techniques. MRC-5 cells were seeded at 5000 cells/well in 96-well plates to ensure full confluence (quiescence) and left overnight to adhere to the plate wells. The adherent cells were treated with 1–500 µM of compounds by dissolving in DMSO and serially diluting with media. The final concentration of DMSO was 0.5% (v/v). After 72 h drug incubation, […] stock MTT solution (5 mg/mL) was added and the cells were incubated for another 3.5–4 h. MTT solution-containing media was carefully aspirated without displacing the purple crystals from the bottom and […] acid-isopropanol was added to all wells and mixed slowly by shaking with an orbital shaker to dissolve the dark blue crystals. The metabolic activity was detected by spectrophotometric analysis by assessing the read absorbance (590/620 nm) on an EnSight plate reader (PerkinElmer, Waltham, MA, USA) and cell viability was expressed as a percentage of untreated control cells. The determination of IC50 values was performed using GraphPad Prism 6 (GraphPad, San Diego, CA, USA). Each experiment was performed in triplicate and was repeated in three independent experiments.

[7] = Tethered bilayer lipid membranes (tBLMs) assay, negatively charged membrane; conditions: for changes in membrane conductance: 30% POPG membranes, concentrations <1 μM; for changes of membrane conduction: negatively charged membranes, higher concentrations (1–100 μM), compared to zwitterionic; for membrane capacitance: negatively charged tBLMs, saturating concentrations
Description: (§2) Changes in membrane conduction and capacitance were measured using tethered bilayer lipid membranes (tBLMs) in association with AC electrical impedance spectroscopy techniques. Sparsely tethered tBLMs were prepared using a zwitterionic 1-palmitoyl-2-oleoyl-glycero-3-phosphocholine (POPC) (Avanti Lipids, USA) or a mixture of 30% palmitoyl-oleoyl-phosphatidylglycerol (POPG) (Avanti Lipids, USA) lipids with 70% POPC in order to create a negatively charged tBLM [66, 67]. To do this, gold-patterned polycarbonate slides were coated with tethered benzyl-disulfide (tetra-ethyleneglycol) n = 2 C20-phytanyl tethers:benzyl-disulfide-tetra-ethyleneglycol-OH spacers in the ratio of 1:10 (SDx Tethered Membranes Pty Ltd., Australia). A 3 mM solution of a mobile lipid phase POPC, or a 3 mM solution of mobile phase POPC/POPG (70:30), (Avanti Lipids, USA) in 100% ethanol was then incubated with the tethering chemistries. Lipids were left to incubate with the tethering chemistries for 2 min before being washed with 3 × […] of phosphate-buffered saline (PBS). Prior to the addition of the compounds, membrane stability was confirmed by 5 × 100 µL washes of the PBS vehicle. AC electrical impedance spectrometry (EIS) was then used to monitor any changes in membrane impedances as a result of adding the test compounds in increasing concentrations.
(§3) For EIS measures, a 50 mV peak-to-peak AC excitation from 0.1 to 2000 Hz with four steps per decade were recorded using a TethaPod™ operated with TethaQuick™ software (SDx Tethered Membranes Pty Ltd., Australia). The data were fitted to an equivalent circuit consisting of a Constant Phase Element (CPE), to represent the imperfect capacitance of the gold tethering electrode, in series with a Resistor/Capacitor network to represent the lipid bilayer membrane. Fitting of the phase and impedance data to the equivalent circuit was completed with a proprietary adaptation of a Lev Mar fitting routine. To account for variations in basal membrane conditions, data are normalised to a baseline conduction and capacitance values directly before the addition of each compound.

[8] = tested on: cytoplasmic membrane of S. aureus; test: Cytoplasmic membrane permeability (diSC3-5 dye release) assay; type: cell-based, Staphylococcus aureus; conditions: 1× and 2× MIC
Description: Bacterial cytoplasmic membrane permeability was determined using membrane potential-sensitive dye diSC3–5 (3,3′-dipropylthiadicarbocyanine iodide), which penetrates inside bacterial cells depending on the membrane potential gradient of the cytoplasmic membrane. The procedure of this assay follows the method previously described by Wu et al. with slight modifications. Bacteria were grown in MHB to mid-log phase by incubating with shaking at 37 °C for […]. Following incubation, bacteria were washed with 5 mM HEPES containing 20 mM glucose at pH 7.2 and resuspended in the same buffer to an OD600 0.05–0.06 (yielding a final concentration of 10^7 CFU/mL). The dye diSC3–5 was added at 4 μM to the bacterial suspension. The suspensions were incubated at room temperature for 1 h in darkness for maximum dye take-up by the bacterial cells. 100 mM KCl was then added to balance the K^+ outside and inside the bacterial cell. 100 μL of bacterial suspension was added in a 96-well microtiter plate and with equal volume of antimicrobial compounds. DMSO (10%) was set as a positive control while dye and only bacterial cells were set as negative control. Fluorescence due to release of dye was measured with a luminescence spectrophotometer at 3 min intervals at an excitation wavelength of 621 nm and an emission wavelength of 670 nm.

[9] = tested on: S. aureus; test: Time-kill kinetic / cell viability count assay; type: cell-based, Staphylococcus aureus
Description: The number of viable cells was confirmed by serially diluting aliquots of bacteria in D/E neutralizing broth (Remel, Lenexa, KS, USA) and plating onto Tryptic Soy Agar (Oxoid, Basingstoke, UK) containing phosphatidylcholine (0.7 g/L) and Tween 80 (5 mL/L). The plates were incubated at 37 °C overnight and numbers of live bacteria were enumerated and expressed as CFU/mL. The experiment was performed in triplicate.

[10] = tested on: established S. aureus biofilms; test: Biofilm disruption assay (crystal violet staining), S. aureus; type: cell-based, Staphylococcus aureus; conditions: 24 h treatment
Description: (§4) Bacterial cultures (S. aureus and E. coli) were grown in Muller Hinton broth (MHB; Oxoid, Basingstoke, UK) media overnight at 37 °C with shaking at 120 rpm. Cultures were diluted (1:20) in MHB medium and 200 µL aliquots were dispensed to wells in a flat bottom 96-well plate (Costar; Sigma-Aldrich, St Louis, MO, USA). Biofilm was then grown in the 96-well plate at 37 °C overnight. After that, loosely bound cells were washed away with 1x phosphate-buffered saline (PBS) and cultures were then supplemented with different concentrations of test compounds dissolved in DMSO and incubated for a further 24 h with shaking at 120 rpm. Biofilms adhered on the plate substratum were quantified using crystal violet staining as described previously. The experiment was performed in triplicate.

[11] = tested on: preformed E. coli biofilm; test: Biofilm disruption assay (crystal violet staining), E. coli; type: cell-based, Escherichia coli; conditions: 4× MIC (64 μM), 24 h treatment
Description: as §4

[12] = tested on: P. aeruginosa (PA01); test: Minimum inhibitory concentration (MIC) assay against P. aeruginosa; type: cell-based; conditions: Pseudomonas aeruginosa
Description: as §1

[13] = Tethered bilayer lipid membranes (tBLMs) assay, zwitterionic membrane; conditions: for shift in membrane conductance: zwitterionic POPC tBLMs, concentrations as low as 100 nM; for changes of membrane conduction: zwitterionic membrane, higher concentrations (1–100 μM); for membrane capacitance: zwitterionic tBLMs, saturating concentrations
Description: as §2, §3

[14] = tested on: S. aureus (SA38); test: Minimum inhibitory concentration (MIC) assay against S. aureus; type: cell-based, Staphylococcus aureus; conditions: Staphylococcus aureus
Description: as §1

[15] = no antibacterial activity at the highest concentration tested (250 μM) ref 43
[16] = any tested concentration (1×, 2× and 4× MIC)
[17] = previously reported values ref 51

Compound | MIC [5] [µM] | IC50 [6] [µM] | changes of membrane conduction [7] | increase in diSC3-5 fluorescence intensity (cytoplasmic membrane disruption) [8] | disruption of preformed S. aureus biofilms ([10]; 4× MIC (32 μM)) [%] | MIC [12] [µM] | changes of membrane conduction [13] | MIC [14] [µM] | other results
CCCCCCCCS(=O)(=O)Nc1ccccc1C(=O)C(=O)NCCC[N+](C)(C)C [Compound 4a] | – | – | – | – | – | – | – | – | MIC against P. aeruginosa [1, 15]: > 250 µM; MIC against E. coli [2, 15]: > 250 µM; MIC against S. aureus ([3]; previously synthesised N-sulfonylphenylglyoxamide iodide salts ref 43): 250 µM
N=C(N)NCCCNC(=O)C(=O)c1cc(Br)ccc1NC(=O)c1ccc2ccccc2c1 [Compound 5] | – | – | – | – | – | – | – | – | antibacterial activity against Gram-negative bacteria [4]: no antibacterial activity; MIC against S. aureus ([3]; previously reported ref 44): 12 µM (≈ 5.96 µg/mL)
CCCCCCCCS(=O)(=O)Nc1ccc(-c2ccc(Cl)cc2)cc1C(=O)C(=O)NCCC[N+](C)(C)C.[I-] [Compound 15c, 3-(2-(4’-Chloro-4-(octylsulfonamido)-[1,1’-biphenyl]-3-yl)-2-oxoacetamido)-N,N,N-trimethylpropan-1-aminium iodide] | 16 | 95.8 | lower | largest increase in fluorescence intensity | 35 | 63 | more pronounced | 8 | changes in membrane conductance [7]: notably absent; membrane capacitance [7]: large increase; reduction in bacterial numbers ([9]; 1× MIC): 1 log; reduction in bacterial numbers ([9]; 2× MIC): 2 log; disruption of preformed E. coli biofilm [11]: insignificant amount; shift in membrane conductance [13]: 2.5 ×; membrane capacitance [13]: large increase
CCCCCCCCS(=O)(=O)Nc1ccc(-c2ccc3ccccc3c2)cc1C(=O)C(=O)NCCC[N+](C)(C)C.[I-] [Compound 15d, N,N,N-Trimethyl-3-(2-(5-(naphthalen-2-yl)-2-(octylsulfonamido)phenyl)-2-oxoacetamido)propan-1-aminium iodide] | 63 | 112 | lower | – | – | 250 | more pronounced | 8 | changes in membrane conductance [7]: notably absent; membrane capacitance [7]: large increase; disruption of preformed S. aureus biofilms [10, 16]: failed to disrupt any; shift in membrane conductance [13]: 2.5 ×; membrane capacitance [13]: large increase
CCCCCCCCS(=O)(=O)Nc1ccc(-c2ccccc2)cc1C(=O)C(=O)NCCCNC(=N)N.Cl [Compound 22a, N-(3-Guanidinopropyl)-2-(4-(octylsulfonamido)-[1,1’-biphenyl]-3-yl)-2-oxoacetamide hydrochloride] | 63 | 75.5 | lower | – | – | 63 | more pronounced | 8 | disruption of preformed S. aureus biofilms [10, 16]: failed to disrupt any
CCCCCCCCS(=O)(=O)Nc1ccc(-c2ccc(F)cc2)cc1C(=O)C(=O)NCCCNC(=N)N.Cl [Compound 22b, 2-(4’-Fluoro-4-(octylsulfonamido)-[1,1’-biphenyl]-3-yl)-N-(3-guanidinopropyl)-2-oxoacetamide hydrochloride] | 16 | 76 | – | modest | 39 | 63 | – | 8 | reduction in bacterial numbers ([9]; 1× and 2× MIC): less than 1 log; disruption of preformed E. coli biofilm [11]: insignificant amount
CCCCCCCCS(=O)(=O)Nc1ccc(-c2ccc3ccccc3c2)cc1C(=O)C(=O)NCCCNC(=N)N.Cl [Compound 22d, N-(3-Guanidinopropyl)-2-(5-(naphthalen-2-yl)-2-(octylsulfonamido)phenyl)-2-oxoacetamide hydrochloride] | > 250 | 49.5 | – | modest | 50 | > 250 | – | 8 | reduction in bacterial numbers ([9]; 1× and 2× MIC): less than 1 log
pexiganan [pexiganan (MSI-78)] | – | – | – | – | – | – | – | – | MIC P. aeruginosa [1, 17]: 3.2 to 6.5 µM; MIC E. coli [2, 17]: 3.2 to 6.5 µM; MIC S. aureus [3, 17]: 3.2 to 6.5 µM
